This note sets out measurements from PubChem BioAssay (NCI).

Common to all, as to experiment: NCI anticancer screen, dose series, 48 h
For assay [1], the system named is COLO 205 colon.
Assay [2] has as its system SK-OV-3 ovarian.
Assay [3] concerns HCC-2998 colon.
In assay [4] the test system is SK-MEL-2 melanoma.
The test system of assay [5] is NCI-H460 lung.
Assay [6] relates to RXF 393 renal.
Assay [7] relates to A498 renal.
Assay [8] concerns 786-0 renal.
Assay [9] relates to TK-10 renal.
Assay [10] concerns MDA-MB-435.

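Method: 48-hour compound exposure of cells in 96-well plates, five concentrations, linear interpolation of endpoints. The concentration for full growth arrest is given as TGI.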 Where a SMILES comes first, the peptide text is derived from it. Bridges are numbered along the chain shown (N, C = ends). [ ]: non-standard residue; d: D form. The star is where a group is joined. ξ: configuration not given here. X26 = O=C(/C=C/C=C/C=C/C=C/C=C/C(=O)*)NC1=C(O)CCC1=O; NMeA = CN[C@@H](C)C(=O)O; ξF = NC(Cc1ccccc1)C(=O)O; ξA = CC(N)C(=O)O Where only a bound is given, the exact number is not on record here.

For the compound `CCN1CCCC(NCc2c3ccccc3c(CNC3CCCN(CC)C3)c3ccccc23)C1` (configuration not stated), the TGI was 12.7 µM in assay [1]; 36.7 µM in assay [2]; 27.9 µM in assay [3]; 11.7 µM in assay [4]; 18.3 µM in assay [5]; 11.8 µM in assay [6]. Further, the TGI in [7] amounted to 28.2 µM.

For `COc1ccc(-c2oc(/C=N/NC(N)=S)c([N+](=O)[O-])c2-c2ccc(OC)c(OC)c2)cc1OC`, the TGI was more than 100 µM in [1]; 69.3 µM in assay [2]; more than 100 µM in [8]; 35.2 µM in assay [4]; more than 100 µM in [9]; 45.6 µM in assay [6].

As for `CC1=NN(C(=O)CC(=O)Nc2ccccc2F)C(=O)C1N=Nc1ccccc1[N+](=O)[O-]` (configuration not stated), the TGI in assay [1], in assay [2], in [8], in assay [4], in assay [9] and in assay [6] was more than 100 µM in each case.

Consider `Cc1c(N2C(=O)C(Cl)C2c2ccc(Cl)cc2)c(=O)n(-c2ccccc2)n1C` (configuration not stated), for which the TGI is 59.8 µM in assay [10]; more than 100 µM in assay [1]; more than 100 µM in [2]; more than 100 µM in assay [8]; more than 100 µM in assay [4]; more than 100 µM in assay [5]. In addition, the TGI in assay [9] and in [6] was more than 100 µM each time.

Regarding `Nc1nc(N)c(N=O)c(Nc2ccc(Br)cc2)n1`, the TGI in assay [1] is 38.8 µM; in assay [2] it was more than 100 µM; in [3], more than 100 µM; in assay [8] it was more than 100 µM; in assay [4], 49.6 µM; in assay [5] it was more than 100 µM. For the same compound, the TGI in assay [9] turned out to be 70.4 µM; in assay [7], 35.2 µM.

Turning to `c1ccc2c(c1)c1c(n2CCOCCN2CCOCC2)CCCC1`, the TGI in assay [2] was more than 100 µM; in assay [4], 52.4 µM; in assay [5], more than 100 µM; in assay [9] it was 58.6 µM; in assay [7], 98.9 µM.

`O=C(CNc1c(Cl)cccc1Cl)NC1C=Cc2ccc(S(=O)(=O)Nc3c(Cl)cccc3Cl)cc2C1=O` (configuration not stated): the TGI in assay [10], in assay [1], in assay [2], in assay [3], in [8] and in assay [4] was more than 100 µM throughout. Further, the TGI in [5] and in assay [9] was more than 100 µM in each case.

As to `C=Cc1ccc(C)[n+](C[Si](C)(C)O[Si](C)(C)C[n+]2cc(C=C)ccc2C)c1`, the TGI in assay [1], in [2], in assay [3], in [8], in [4] and in assay [5] was more than 100 µM throughout. Further, the TGI in assay [9] and in assay [6] was more than 100 µM each time.

As for `CC(=O)OCC1OC(n2cc(I)c(=O)[nH]c2=O)C(OC(C)=O)C(OC(C)=O)C1OC(C)=O` (configuration not stated), the TGI in assay [1], in assay [2], in [3], in assay [8], in [4] and in [5] was more than 100 µM throughout. In addition, the TGI in [9], in assay [6] and in assay [7] was more than 100 µM throughout.

For `O=C1Sc2ccccc2C(=O)N2CSCC12` (configuration not stated), the TGI in [1], in assay [2], in assay [3], in [8], in assay [4] and in assay [5] was more than 100 µM in each case. For the same compound, the TGI in [9] and in [6] was more than 100 µM throughout.

On to `N#CC1=C(c2ccccc2)NNC(c2ccc(Cl)cc2)CC1=O` (configuration not stated), for which the TGI is more than 100 µM in assay [2]; more than 100 µM in assay [3]; 90.4 µM in [4]; more than 100 µM in assay [5]; more than 100 µM in assay [9]; more than 100 µM in [6]. Moreover, the TGI in assay [7] was more than 100 µM.

For the compound `CCC1=CC2CN3Cn4c(c(COCc5c6n(c7ccccc57)CN5CC7C=C(CC)C5C6(C(=O)OC)C7)c5ccccc54)C(C(=O)OC)(C2)C13`, the TGI in assay [1], in assay [2], in assay [8], in [4], in assay [5] and in [9] was more than 100 µM in each case. For the same compound, the TGI in assay [6] and in assay [7] was more than 100 µM throughout.

Turning to `O=C(Cc1nc2c3c(ccc2[nH]c1=O)C(=O)c1ccccc1C3=O)C(=O)Nc1ccccc1[N+](=O)[O-]`, the TGI was 33.5 µM in [1]; more than 100 µM in assay [2]; 36.8 µM in assay [3]; 34.4 µM in [8]; 45.4 µM in assay [4]; 97.6 µM in [5]. The TGI in [9] was found to be 44.8 µM.

As to `O=c1[nH]cnc(NC2C=C(CO)C(O)C2O)c1[N+](=O)[O-]` (configuration not stated), the TGI in assay [1] is more than 100 µM; in [2], more than 100 µM; in [3] it was more than 100 µM; in assay [8], more than 64.3 µM; in [4], more than 100 µM; in assay [5], more than 58.2 µM. Besides, the TGI in assay [9], in [6] and in assay [7] was more than 100 µM each time.

For `CC1NC(=O)[C@H](C)N(C)C(=O)[C@@H]2CCCN2C(=O)[C@@H](NC(=O)C(Cc2ccccc2)NC(=O)/C=C/C=C/C=C/C=C/C=C/C(=O)NC2=C(O)CCC2=O)COC(=O)[C@@H]2CCCN2C1=O` (some centres not stated) (X26-[ξF]SP[NMeA][ξA]P; ester 2-C), the TGI in assay [10], in assay [1], in assay [2], in [3], in assay [8] and in [4] was more than 100 µM throughout. For the same compound, the TGI in [5] is more than 100 µM; in assay [9], 92.1 µM; in assay [6], more than 100 µM.

On to `CCOP(=O)(OCC)C(C(=O)OC)C(=O)C(=O)Nc1ccc(Cl)cc1Cl` (configuration not stated), for which the TGI in assay [1], in assay [2], in assay [3], in assay [8], in assay [4] and in assay [5] was more than 100 µM throughout. The TGI in [9], in assay [6] and in [7] was more than 100 µM each time.
